The text below walks through data of patent US7008621B2, “Regulation of apoptosis in aquatic organisms by aquabirnavirus” (Academia Sinica, priority 1999, dated 2006).

The test system of one assay is IPNV E1-S. As to the kind of experiment: Blocking of viral replication / viral protein expression, Western blot with anti-E1-S virion antiserum. The class given is cell-based, infectious pancreatic necrosis virus. The conditions noted are these: 16 h. On the procedure: (§1) After adding protein synthesis inhibitor, serine proteinase inhibitors, tyrosine kinase inhibitors and a cation chelator, CHSE-214-EGFP cells were infected with IPNV (MOI of 1) then incubated for 16 h at 18° C. Samples were electrophoresed on a 12% SDS-polyacrylamide gel and electroblotted to a nitrocellulose membrane. Antigen-specific signals were detected with a rabbit anti-EI-S virion antiserum (A) or with a rabbit anti-human Mcl-1 antiserum (Pharmingen) (B) and with a mouse monoclonal IgG antibody directed against mouse actin (Chemicon) (C). (A) Lane 1, normal CHSE-214 cell lysate; lane 2, IPNV infected cell lysate at 16 h postinfection; lanes 3–8, 30 μg of cell lysate, to which was added cycloheximide (100 μg/ml), aprotinin (400 μg/ml), leupeptin (400 μg/ml), genistein (100 μg/ml), tyrphostin (100 μg/ml) and EDTA (2 mM), followed by IPNV infection and incubated cells for 16 h, respectively. (B,C) The nitrocellulose membrane from (A) was stripped and reprobed with Mcl-1 or an actin antibody, respectively.
(§2) About 10^5 cells/ml were seeded on a 60-mm. petri dish for growth for more than 20 h. Monolayers were rinsed twice with phosphate-buffered saline (PBS). Control cells or cells that received virus at a MOI of 1 were incubated for 0, 2, 4, 6, 8, 10 and 24 h. At the end of each incubation time the culture medium was aspirated. The cells were washed with PBS and then lysed in 0.3 nil lysis buffer [10 mM Tris base, 20% glycerol, 10 mM sodium dodecyl sulfate (SDS), 2% β-mercaptoethanol (P-ME), pH 6.8].
(§3) Proteins were separated by SDS-polyacrylamide gel electrophoresis (Laemmli, 1970), electroblotted, and subjected to immunodetection as described by Kain et al. (1994). Blots were incubated with a 1:1500 dilution of anti-human Mcl-1 polyclonal antibodies (Pharmingen) or a 1:7500 dilution of a peroxidase-labeled goat anti-rabbit conjugate (Amershan). Chemi-luminescent detection was performed according to the instructions provided with the Western Exposure Chemiluminescent Dectection System (Amershan). Chemiluminescent signals were imaged by exposure to Kodak XAR-5 film (Eastman Kodak, Rochester, N.Y., USA). Primary (Mcl-1) and secondary antibodies (peroxidase-labeled goat anti-rabbit conjugate) were stripped from blots by incubation in stripping buffer containing 62.5 mM Tris-HCI (pH 6.8), 3.0% (w/v) SDS and 50 mM 1,4-dithiothreitol for 30 min at 55° C. with gentle shaking. The blots were then washed four times for 10 min each time in PBS containing 0.1% (v/v) Tween 20 and reprobed with mouse actin monoclonal antibody (1/1500, Chemicon) and a 1:7500 dilution of a peroxidase-labeled sheep anti-mouse conjugate (Amersham).
(§4) At the end of the incubation period, cells were harvested and the samples were analyzed by Western blot method.
For orientation: Immunoblotting shows a protein as a band on a membrane.

The subject of another assay is Mcl-1 protein. As to the kind of experiment: Prevention of down-regulation of Mcl-1 protein expression by IPNV, Western blot. The class given is cell-based, Chinook salmon. The conditions noted are these: 16 h. How it is done:
as §1, §2, §3, §4

In assay [1] the test system is CHSE-214-EGFP cells infected with IPNV. As to the kind of experiment: EGFP release (membrane integrity) Western blot after drug pre-treatment and IPNV infection. The class given is cell-based, Chinook salmon. The conditions noted are these: 16 h. On the procedure:
Protein synthesis inhibitors, serine proteinase inhibitors, tyrosine kinase inhibitors, and a cation chelator were added to CHSE-214-EGFP cells before infection with IPNV (MOI of 1). After infection, the cells were incubated for 16 h. Samples were electrophoresed on a 12% SDS-polyacrylamide gel and electroblotted to a nitrocellulose membrane. Antigen-specific signals were detected with either rabbit anti-GFP serum (A and C) or a mouse IgG monoclonal antibody directed against actin (B). The chemiluminescent signal was imaged on Kodak XAR-5 film by using a 5-min (A), a 1-min (B), or a 30-min (C) exposure. (A) Lanes: 1, 0.2 μg of recombinant wild-type GFP as a positive control; 2, normal CHSE-214-EGFP cell lysate; 3, 30 μg of cell lysate protein corresponding to IPNV infection; 4–9, 30 μg of cell lysate protein corresponding to pre-treatment with cycloheximide (CHX) (100 μg/ml), aprotinin (400 μg/ml), leupeptin (400 μg/ml), genistein (100 μg/ml), tyrphostin (100 μg/ml), and EDTA (2 mM) and then followed by virus infection for 16 h, respectively. (B) The nitrocellulose membrane from panel A was stripped and reprobed with an actin antibody. (C) Lanes: 1, 100 ng of wide-type GFP; 2, 30 μg of supernatant medium protein from normal CHSE-214 cells; 3, 30 μg of supernatant medium protein from IPNV-infected cells at 16 h p.i. 4–9, 30 μg of supernatant medium protein corresponding to treatment with cycloheximide (CHX) (100 μg/ml), aprotinin (400 μg/ml), leupeptin (400 μg/ml), genistein (100 μg/ml), tyrphostin (100 μg/ml), and EDTA (2 mM) and then followed by virus infection for 16 h, respectively.
About 10^5 cells per ml were seeded on a 60-mm-diameter petri dish and allowed to grow for more than 20 h. The cell monolayers were rinsed twice with phosphate-buffered saline (PBS), after which they were infected at an MOI of 1 and incubated for 0, 2, 4, 6, 8, 10, 12, and 24 h post infection (p.i.). Uninfected control cells were also incubated for the same periods of time. At the end of each incubation time, the culture medium was aspirated. The cells were washed with PBS and then lysed in 0.3 ml of lysis buffer (10 mM Tris base, 20% glycerol, 10 mM sodium dodecyl sulfate [SDS], 2% β-mercaptoethanol, pH 6.8).
Proteins were separated by SDS-polyacrylamide gel electrophoresis, electroblotted, and subjected to immunodetection as described by Kain et al. (1994), Bio Techniques, 17:982–987. Blots were incubated with a 1:7,500 dilution of an immunoglobulin fraction (Clontech) and a 1:1,500 dilution of a peroxidase-labeled goat anti-rabbit conjugate (Amersham). Chemilumine-scence detection was performed in accordance with the instructions provided with the Western Exposure Chemiluminescent Detection System (Amersham). Chemiluminescent signals were imaged by exposure of Kodak XAR-5 film (Eastman Kodak, Rochester, N.Y.). Stripping and reprobing of the Western blot and removal of the primary and secondary antibodies from blot were achieved by incubation in stripping buffer containing 62.5 mM Tris-HCl (pH 6.8), 3.0% (wt/vol) SDS, and 50 mM 1,4-dithiothreitol for 30 min at 55° C. with gentle shaking. The blot was washed three times in PBS containing 0.1% (vol/vol) Tween 20 for 10 min each time and reprobed with antibodies beginning at the membrane blocking step.
At the end of the incubation period, cells were harvested and samples were analyzed by Western blotting.

The subject of assay [2] is CHSE-214 cells infected with IPNV E1-S. As to the kind of experiment: DNA internucleosomal cleavage induced by IPNV, agarose gel electrophoresis. The conditions noted are these: 16 h postinfection. The class given is cell-based, Chinook salmon. On the procedure:
Lane 2: DNA isolated from uninfected CHSE-214 cells as a negative control. Lane 3: cells infected for 16 h with an MOI of 1 of E1-S, respectively, at 16 h postinfection. Lanes 6 and 7: CHSE-214 cells treated with aprotinin (400 μg/ml) in the absence and presence of infection by an MOI of 1 of E1-S, respectively, at 16 h postinfection. Lanes 8 and 9: CHSE-214 cells treated with leupeptin (400 μg/ml) in the absence and presence of infection by an MOI of 1 of E1-S, respectively, at 16 h postinfection. Lanes 10 and 11: CHSE-214 cells treated with genistein (100 μg/ml) in the absence and presence of infection by an MOI of 1 of E1-S, respectively; at 16 h postinfection. Lanes 12 and 13: CHSE-214 cells treated with tyrphostin (100 μg/ml) in the absence and presence of infection by an MOI of 1 of E1-S, respectively, at 16 h postinfection. Lanes 14 and 15: CHSE-214 cells treated with 2 mM EDTA in the absence and presence of infection by an MOI of 1 of E1-S, respectively, at 16 h postinfection. All samples were electrophoresed through 1.2% agarose gels and visualized by ethidium bromide staining. Lane 1 contains the molecular weight marekers used in the gel (1 kb DNA ladder from MBI for sizing linear fragments ranging in size from 500 bp to […]).
About 10^5 cells per ml were seeded on a 60-mm-diameter petri dish and allowed to grow for more than 20 h. The cell monolayers received virus at an MOI of 1.0 and were incubated for 8 h. Uninfected control cells were also incubated for 8 h. The two groups were used for DNA fragmentation studies. At the end of incubation, the cells were lysed with lysis buffer (10 mM Tris-HCl, 0.25% Triton X-100, 1 mM EDTA, pH 7.4). After treatment with phenol-chloroform-isoamyl alcohol (25:24:1), the DNA was precipitated in the presence of 0.3 M sodium acetate and cold absolute ethanol at −70° C. for 2 h and then resuspended in 10 mM Tris-HCl (pH 7.4)−1 mM EDTA. […]

Where [3] appears, read: 400 μg/ml before IPNV infection.
Setting [4] is: 400 μg/ml added before IPNV infection (MOI 1).

Entries after “also recorded” stand apart in the source; their conditions may differ.

In the case of `C[C@@H]1C[C@@H]([C@H](O)CC2CC(=O)NC(=O)C2)C(=O)[C@@H](C)C1` [CHX, cycloheximide], the “viral replication / viral protein expression” value in the assay with IPNV E1-S (10 μg/ml added to CHSE-214 cells before IPNV infection) is on record as “blocked viral protein expression”; in the assay on IPNV E1-S (10 μg/ml added to CHSE-214 cells before IPNV infection, listed as cyclohexamide), “viral replication was prevented”. For the same molecule, the “prevention of down-regulation of Mcl-1 protein expression” value in the assay with Mcl-1 protein (10 μg/ml before IPNV infection) is recorded as “helped to maintain Mcl-1 expression level”; with Mcl-1 protein (10 μg/ml before IPNV infection, listed as cyclohexamide) it was “partially prevented down-regulation of Mcl-1 protein expression”. In addition, the “prevention of EGFP release” value in assay [1] (10 μg/ml added before IPNV infection (MOI 1)) is on record as “completely prevented EGFP release”. Moreover, the “induction of DNA internucleosomal cleavage by IPNV” value (“induction” for short) in assay [2] (10 μg/ml before IPNV infection (MOI 1)) is reported as “blocked the induction of DNA internucleosomal cleavage”.

Consider `O=C(O)CN(CCN(CC(=O)O)CC(=O)O)CC(=O)O` [EDTA], for which the “viral replication / viral protein expression” value in the assay on IPNV E1-S (2 mM added to CHSE-214 cells before IPNV infection) is “viral replication was prevented; also recorded: blocked viral protein expression”. In addition, the “prevention of down-regulation of Mcl-1 protein expression” value in the assay on Mcl-1 protein (2 mM before IPNV infection) is “partially prevented down-regulation of Mcl-1 protein expression; also recorded: helped to maintain Mcl-1 expression level”. In addition, the “prevention of EGFP release” value in assay [1] (2 mM added before IPNV infection (MOI 1)) was “completely prevented EGFP release”. Besides, the “induction” value in assay [2] (2 mM before IPNV infection (MOI 1)) is listed as “minor internucleosomal cleavage; also recorded: blocked the induction of DNA internucleosomal cleavage”.

With `O=c1c(-c2ccc(O)cc2)coc2cc(O)cc(O)c12` [genistein], the “viral replication / viral protein expression” value with IPNV E1-S (100 μg/ml added to CHSE-214 cells before IPNV infection) was “viral replication was prevented; also recorded: blocked viral protein expression”. In the assay with Mcl-1 protein (100 μg/ml before IPNV infection), the “prevention of down-regulation of Mcl-1 protein expression” value was “partially prevented down-regulation of Mcl-1 protein expression; also recorded: helped to maintain Mcl-1 expression level”. Moreover, the “prevention of EGFP release” value in assay [1] (100 μg/ml added before IPNV infection (MOI 1)) is given as “partially prevented EGFP release”. Further, the “induction” value in assay [2] (100 μg/ml before IPNV infection (MOI 1)) is “blocked the induction of DNA internucleosomal cleavage”.

Consider `CC(=O)N[C@@H](CC(C)C)C(=O)N[C@@H](CC(C)C)C(=O)N[C@H](C=O)CCCNC(=N)N` [leupeptin], for which the “prevention of down-regulation of Mcl-1 protein expression” value with Mcl-1 protein (setting [3]) is reported as “could not”. The “prevention of EGFP release” value in assay [1] (setting [4]) is given as “did not prevent EGFP release”.

As to aprotinin, the “prevention of down-regulation of Mcl-1 protein expression” value with Mcl-1 protein (setting [3]) is “could not”. Further, in assay [1] (setting [4]), the “prevention of EGFP release” value is on record as “did not prevent EGFP release”.
